From patent US8637510B2, “Morpholinothiazoles as alpha 7 positive allosteric modulators” (Janssen Pharmaceutica NV, priority 2009, dated 2014)

Key:
human alpha 7-wt nAChR = biological target: T1, human alpha 7-wt nAChR (Homo sapiens, UniProt P36544); experiment: Ca2+ flux imaging (FDSS) (Protocol B); format: cell-based; settings: for Emax: read-out: a7-PAM-G_[33]_Eff_Curve_FI % Efficacy; for EC50: potentiation of 100 μM choline, compounds 0.01 μM to 30 μM, read-out: a7-PAM-G_[33]_pEC50 pEC50 (converted)
T1 construct: expressed in transfected cells
Procedure, shortened: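 PAM activity was measured as FDSS calcium fluorescence in α7-wt nAChR cells loaded with 2 μM Fluo-4AM, with compounds at 0.01–30 μM added alongside or 10 min ahead of sub-maximal 100 μM choline. Peak responses were normalised to choline-only efficacy, and EC50 was taken at half-maximal effect.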

[1] = efficacy of 100 μM choline defined as 100% in the absence of a PAM

T1 sequence (P36544 23-502): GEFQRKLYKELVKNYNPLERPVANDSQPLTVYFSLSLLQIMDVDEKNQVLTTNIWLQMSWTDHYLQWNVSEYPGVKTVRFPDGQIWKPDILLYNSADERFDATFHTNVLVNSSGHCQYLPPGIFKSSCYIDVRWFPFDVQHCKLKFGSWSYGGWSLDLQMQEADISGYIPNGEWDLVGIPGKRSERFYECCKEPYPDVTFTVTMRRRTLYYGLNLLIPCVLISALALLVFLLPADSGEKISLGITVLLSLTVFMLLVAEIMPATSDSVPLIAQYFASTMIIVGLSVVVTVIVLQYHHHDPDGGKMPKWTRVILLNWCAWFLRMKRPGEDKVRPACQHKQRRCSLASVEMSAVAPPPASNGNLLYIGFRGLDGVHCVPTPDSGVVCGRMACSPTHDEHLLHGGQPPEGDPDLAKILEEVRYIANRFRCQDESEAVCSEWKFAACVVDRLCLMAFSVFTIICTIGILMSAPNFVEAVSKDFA

SMILES	melting point [°C]	Emax (human alpha 7-wt nAChR; [1]) [%]	EC50 (human alpha 7-wt nAChR) [µM]	a7-PAM-G_[33]_Eff_Curve_FI % Efficacy (human alpha 7-wt nAChR; [1]) [%]
Cc1cc(-c2sc(N3C[C@@H](C)O[C@@H](C)C3)nc2CNC(=O)c2c(C)noc2C(F)(F)F)cc(C)n1 [Compound 163, N-[[2-[(2R,6S)-2,6-dimethyl-4-morpholinyl]-5-(2,6-dimethyl-4-pyridinyl)-4-thiazolyl]methyl]-3-methyl-5-(trifluoromethyl)-4-isoxazolecarboxamide]	176	142		
Cc1cc(-c2sc(N3C[C@@H](C)O[C@@H](C)C3)nc2CNC(=O)c2csc(C)c2C)cc(C)n1 [Compound 164, N-[[2-[(2R,6S)-2,6-dimethyl-4-morpholinyl]-5-(2,6-dimethyl-4-pyridinyl)-4-thiazolyl]methyl]-4,5-dimethyl-3-thiophenecarboxamide]	200		0.166	
Cc1cc(-c2sc(N3C[C@@H](C)O[C@@H](C)C3)nc2CNC(=O)c2ccc(F)cc2)ccn1 [Compound 94, N-[[2-[(2R,6S)-2,6-dimethyl-4-morpholinyl]-5-(2-methyl-4-pyridinyl)-4-thiazolyl]methyl]-4-fluoro-benzamide]	225	420	0.479	
Cc1cc(-c2sc(N3C[C@@H](C)O[C@@H](C)C3)nc2CNC(=O)c2cc(C)oc2C)cc(C)n1 [Compound 146, N-[[2-[(2R,6S)-2,6-dimethyl-4-morpholinyl]-5-(2,6-dimethyl-4-pyridinyl)-4-thiazolyl]methyl]-2,5-dimethyl-3-furancarboxamide]	131		0.977	
Cc1cc(-c2sc(N3CCOC[C@@H]3C)nc2CNC(=O)CC(C)C)cc(C)n1 [Compound 189, N-[[5-(2,6-dimethyl-4-pyridinyl)-2-[(3S)-3-methyl-4-morpholinyl]-4-thiazolyl]methyl]-3-methyl-butanamide]	151		1.51	
Cc1cc(C(=O)NCc2nc(N3CCOCC3)sc2-c2ccncc2)no1 [Compound 111, 5-methyl-N-[[2-(4-morpholinyl)-5-(4-pyridinyl)-4-thiazolyl]methyl]-3-isoxazolecarboxamide]	191	812		
Cc1cc(-c2sc(N3CC(C)OC(C(F)(F)F)C3)nc2CNC(=O)CC2CC2)cc(C)n1 (racemic) [Compound 205, N-[[5-(2,6-dimethyl-4-pyridinyl)-2-[2-methyl-6-(trifluoromethyl)-4-morpholinyl]-4-thiazolyl]methyl]-cyclopropaneacetamide]	148		0.038	883
Cc1cc(C(=O)NCc2nc(N3C[C@@H](C)O[C@@H](C)C3)sc2-c2ccncc2)no1 [Compound 100, N-[[2-[(2R,6S)-2,6-dimethyl-4-morpholinyl]-5-(4-pyridinyl)-4-thiazolyl]methyl]-5-methyl-3-isoxazolecarboxamide]	182		1.82	
Cc1cc(-c2sc(N3C[C@@H](C)O[C@@H](C)C3)nc2CNC(=O)c2ccc(F)c(F)c2C)cc(C)n1 [Compound 38, N-[[2-[(2R,6S)-2,6-dimethyl-4-morpholinyl]-5-(2,6-dimethyl-4-pyridinyl)-4-thiazolyl]methyl]-3,4-difluoro-2-methyl-benzamide]	187		0.0055	
Cc1cc(C(=O)NCc2nc(N3C[C@@H](C)O[C@@H](C)C3)sc2-c2ccnc(C(F)(F)F)c2)no1 [Compound 199, N-[[2-[(2R,6S)-2,6-dimethyl-4-morpholinyl]-5-[2-(trifluoromethyl)-4-pyridinyl]-4-thiazolyl]methyl]-5-methyl-3-isoxazolecarboxamide]	228		0.219	
Cc1cc(-c2sc(N3CCOCC3)nc2CNC(=O)c2ccc(F)cc2C)cc(C)n1 [Compound 80, N-[[5-(2,6-dimethyl-4-pyridinyl)-2-(4-morpholinyl)-4-thiazolyl]methyl]-4-fluoro-2-methyl-benzamide]	221	902	0.661	
CCCC(=O)NCc1nc(N2CCOCC2)sc1-c1cc(C)nc(C)c1 [Compound 67, N-[[5-(2,6-dimethyl-4-pyridinyl)-2-(4-morpholinyl)-4-thiazolyl]methyl]-butanamide]	178	959	5.37	
Cc1cc(-c2sc(N3C[C@@H](C)O[C@@H](C)C3)nc2CNC(=O)c2ccc(F)c(F)c2)cc(C)n1 [Compound 36, N-[[2-[(2R,6S)-2,6-dimethyl-4-morpholinyl]-5-(2,6-dimethyl-4-pyridinyl)-4-thiazolyl]methyl]-3,4-difluoro-benzamide]	189	869	0.0741	
Cc1cc(-c2sc(N3C[C@@H](C)O[C@@H](C)C3)nc2CNC(=O)c2ccc3c(c2)OC(F)(F)O3)cc(C)n1 [Compound 45, N-[[2-[(2R,6S)-2,6-dimethyl-4-morpholinyl]-5-(2,6-dimethyl-4-pyridinyl)-4-thiazolyl]methyl]-2,2-difluoro-1,3-benzodioxole-5-carboxamide]	175	566	0.355	
Cc1cc(-c2sc(N3C[C@@H](C)O[C@@H](C)C3)nc2CNC(=O)c2ccc(Cl)c(Cl)c2)cc(C)n1 [Compound 35, 3,4-dichloro-N-[[2-[(2R,6S)-2,6-dimethyl-4-morpholinyl]-5-(2,6-dimethyl-4-pyridinyl)-4-thiazolyl]methyl]-benzamide]	185	599	0.132	
Cc1ccc(-c2sc(N3C[C@@H](C)O[C@@H](C)C3)nc2CNC(=O)c2ccc(F)cc2)cn1 [Compound 126, N-[[2-[(2R,6S)-2,6-dimethyl-4-morpholinyl]-5-(6-methyl-3-pyridinyl)-4-thiazolyl]methyl]-4-fluoro-benzamide]	195	655	1.66	
Cc1cc(C(=O)NCc2nc(N3CCOC(C)C3)sc2-c2cc(C)nc(C)c2)on1 (single isomer, unassigned) [Compound 72, N-[[5-(2,6-dimethyl-4-pyridinyl)-2-[(2S*)-2-methyl-4-morpholinyl]-4-thiazolyl]methyl]-3-methyl-5-isoxazolecarboxamide]	138		2	

Continued, values first:

melting point [°C]	Emax (human alpha 7-wt nAChR; [1]) [%]	EC50 (human alpha 7-wt nAChR) [µM]	a7-PAM-G_[33]_Eff_Curve_FI % Efficacy (human alpha 7-wt nAChR; [1]) [%]	SMILES
149		0.912		Cc1cc(-c2sc(N3C[C@@H](C)O[C@@H](C)C3)nc2CNC(=O)c2occc2C)cc(C)n1 [Compound 147, N-[[2-[(2R,6S)-2,6-dimethyl-4-morpholinyl]-5-(2,6-dimethyl-4-pyridinyl)-4-thiazolyl]methyl]-3-methyl-2-furancarboxamide]
173	420	0.676		Cc1cc(-c2sc(N3C[C@@H](C)O[C@@H](C)C3)nc2CNC(=O)C2CCCC2)c(C)cn1 [Compound 96, N-[[2-[(2R,6S)-2,6-dimethyl-4-morpholinyl]-5-(2,5-dimethyl-4-pyridinyl)-4-thiazolyl]methyl]-cyclopentanecarboxamide]
166	938	1.62		Cc1cc(-c2sc(N3CC(C)OC(C)C3)nc2CNC(=O)c2cc(C)on2)cc(C)n1 (racemic) [Compound 59, N-[[2-[2,6-dimethyl-4-morpholinyl]-5-(2,6-dimethyl-4-pyridinyl)-4-thiazolyl]methyl]-5-methyl-3-isoxazolecarboxamide]
179		1.91		Cc1cc(-c2sc(N3C[C@@H](C)O[C@@H](C)C3)nc2CNC(=O)c2ccon2)cc(C)n1 [Compound 180, N-[[2-[(2R,6S)-2,6-dimethyl-4-morpholinyl]-5-(2,6-dimethyl-4-pyridinyl)-4-thiazolyl]methyl]-3-isoxazolecarboxamide]
139	567			Cc1ccc(-c2sc(N3C[C@@H](C)O[C@@H](C)C3)nc2CNC(=O)C2CCC2)cn1 [Compound 120, N-[[2-[(2R,6S)-2,6-dimethyl-4-morpholinyl]-5-(6-methyl-3-pyridinyl)-4-thiazolyl]methyl]-cyclobutanecarboxamide]
188		3.24		Cc1cc(-c2sc(N3CCOCC3)nc2CNC(=O)C2CCC2)cc(C)n1 [Compound 65, N-[[5-(2,6-dimethyl-4-pyridinyl)-2-(4-morpholinyl)-4-thiazolyl]methyl]-cyclobutanecarboxamide]
184	827	0.0105		Cc1cc(-c2sc(N3C[C@@H](C)O[C@@H](C)C3)nc2CNC(=O)CC(C)C)cc(C)n1 [Compound 42, N-[[2-[(2R,6S)-2,6-dimethyl-4-morpholinyl]-5-(2,6-dimethyl-4-pyridinyl)-4-thiazolyl]methyl]-3-methyl-butanamide]
167	473	1		Cc1ccc(-c2sc(N3C[C@@H](C)O[C@@H](C)C3)nc2CNC(=O)c2cccc(Cl)c2)cn1 [Compound 122, 3-chloro-N-[[2-[(2R,6S)-2,6-dimethyl-4-morpholinyl]-5-(6-methyl-3-pyridinyl)-4-thiazolyl]methyl]-benzamide]
139	302	4.27		Cc1ccc(-c2sc(N3C[C@@H](C)O[C@@H](C)C3)nc2CNC(=O)CC2CC2)cn1 [Compound 119, N-[[2-[(2R,6S)-2,6-dimethyl-4-morpholinyl]-5-(6-methyl-3-pyridinyl)-4-thiazolyl]methyl]-cyclopropaneacetamide]
155		4.07		Cc1cc(-c2sc(N3C[C@@H](C)O[C@@H](C)C3)nc2CNC(=O)c2cc(C)on2)c(C)cn1 [Compound 98, N-[[2-[(2R,6S)-2,6-dimethyl-4-morpholinyl]-5-(2,5-dimethyl-4-pyridinyl)-4-thiazolyl]methyl]-5-methyl-3-isoxazolecarboxamide]
